Where two headings read alike, the source gives them in different places.
How the values were obtained:
[1] = target: T1, Bacillus subtilis AJ1307-derived TG (TG-1) (Bacillus subtilis, UniProt P40746, D22N); type: biochemical; details: for Influence of reagent on TG activity (in words): TG-1, summary of Table 1; for Remaining Activity (relative value): pH 7.5, 37° C.
T1 construct: The thus-obtained cells were used as the starting material, from which TG was purified in the manner mentioned below; endogenous in cells; host or cells: Bacillus subtilis AJ1307 (enzyme solubilized from spores and purified to a single band)
Method: The TG activity of the enzyme liquids obtained below was determined according to an enzymatic activity measuring method, which is as follows. […] The thus-counted value was referred to as the TG activity of the enzyme liquid.
Effects, if any, of various reagents on the TG activity were checked. The reagents tested herein were N-ethylmaleimide (NEM), cystamine, phenylmethanesulfonyl fluoride (PMSF), ammonium sulfate, sodium sulfate, EDTA, EGTA, calcium chloride, dithiothreitol (DTT) and 2-mercaptoethanol (2-ME). All were bought from Nacalai Tesque, Inc.
As the enzyme source, the previously-prepared pure TG fraction was used at a concentration of 2 μg/ml. The protein concentration was measured, using a protein assay kit (produced by Bio Rad Co.).
To measure the TG activity, the above-mentioned method of using ^1 4C-labeled putrescine and dimethylcasein as the substrates (at pH of 7.5 and at 37° C.) was employed. As the enzyme source, the previously-prepared pure TG fraction was used at a concentration of 2 μg/ml. The reaction was conducted at 37° C. for 30 minutes.
The TG activity was measured in the following manner. The above-mentioned pure TG fraction was mixed with each one of the reagents that had been adjusted to have a suitable concentration and then left on ice for 30 minutes. The solution of the enzyme source thus reacted with each reagent was adjusted to have a TG concentration of 2 μg/ml and then reacted with the substrates, whereupon the TG activity still remained in the resulting reaction system was measured (at pH of 7.5 and at 37° C.).

[2] = test system: Bacillus subtilis-derived TG reported by Ramanujam et al.; details: cited from earlier work
[3] = target: T2, Bacillus subtilis AJ12866-derived TG (TG-2) (Bacillus subtilis, UniProt P40746); assay: Influence of reagents on TG activity (TG active fraction after gel permeation, TG-2); details: for Remaining Activity (relative value): control = 100
T2 sequence (P40746 1-245): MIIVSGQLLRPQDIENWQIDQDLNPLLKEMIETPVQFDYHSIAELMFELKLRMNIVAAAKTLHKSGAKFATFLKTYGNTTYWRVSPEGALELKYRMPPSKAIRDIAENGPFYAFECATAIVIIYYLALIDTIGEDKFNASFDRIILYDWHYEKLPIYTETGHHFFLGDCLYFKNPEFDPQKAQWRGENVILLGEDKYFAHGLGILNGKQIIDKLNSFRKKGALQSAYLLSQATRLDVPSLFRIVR
Method: The method for measuring the enzymatic activity as employed herein was as follows. 50 μl of a reaction system (100 mM Tris-HCl, pH 7.5, 6.3 mg/ml dimethylcasein, 10 nM ^14 C-putrescine, 1.2 μCi) containing 10 μl of the enzyme sample to be measured was kept at 37° C. for 30 minutes thereby to make the substrates reacted. After the reaction, 40 μl of the reaction mixture was adsorbed onto filter paper. In the reaction mixture, the putrescine was reacted with the dimethylcasein due to the catalysis of the TG therein. A bonded reaction product of the putrescine and the dimethylcasein was adsorbed on the filter paper. By adding 10% TCA thereto, the bonded reaction product was fixed on the filter paper. Then, the filter paper was washed three times with a 5% TCA solution, and the ^1 4C radioactivity as fixed to the filter paper was counted with a liquid scintillation counter. The value thus measured corresponds to the relative TG activity of the enzyme sample.
The cells of Bacillus subtilis AJ12866 strain were suspended in a reaction system (0.5 mg/ml lysozyme, 20 μg/ml DNase I, 0.1 M Tris-HCl (pH 7.5), 2 mM DTT, 1 mM EDTA, 2 mM PMSF) and reacted on ice for 2 hours whereby the cells were lysed. The resulting reaction mixture was centrifuged at 20,000×g for 20 minutes, and the precipitate fraction thus obtained was suspended in a washing system (0.1 M Tris-HCl (pH 7.5), 1 mM EDTA, 2 mM PMSF). The resulting suspension was centrifuged, and the precipitate was collected. This operation was repeated for a total of two times.
The thus-obtained precipitate fraction was suspended in a buffer (0.1 M sodium carbonate (pH 10), 1 mM EDTA, 2 mM PMSF) and left at 37° C. for 30 minutes. Meanwhile, a part of the substances that had existed in the precipitate fraction were dissolved in the buffer and the TG activity was transferred to the soluble fraction. […] The pH of the supernatant was adjusted to 6.0 by adding acetic acid thereto. This is referred to as a crude enzyme liquid. The crude enzyme liquid was concentrated by ultrafiltration and then dialyzed against a buffer (50 mM Tris-HCl (pH 7.5), 0.1 M NaCl), whereby the buffer was exchanged. The resulting crude enzyme liquid was subjected to gel permeation, and the TG active fraction thus eluted was collected. The enzymatic properties of the fraction were measured.

[4] = agent concentration 10 (unit not given), control = 100
[5] = agent concentration 5 (unit not given), control = 100

T1 sequence (P40746 whole entry D22N): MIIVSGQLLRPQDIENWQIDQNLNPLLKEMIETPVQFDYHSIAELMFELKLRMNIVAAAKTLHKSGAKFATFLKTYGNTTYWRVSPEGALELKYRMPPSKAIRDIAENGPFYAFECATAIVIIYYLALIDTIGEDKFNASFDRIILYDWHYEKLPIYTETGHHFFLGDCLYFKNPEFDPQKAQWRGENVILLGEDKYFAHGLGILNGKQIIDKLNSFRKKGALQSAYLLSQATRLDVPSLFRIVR

Structure (SMILES) | Influence of reagent on TG activity (in words) [1] | Remaining Activity (relative value) [1, 4] | Remaining Activity (relative value) ([3]; agent concentration 10 mM) | Influence of reagent on TG activity (in words) ([3]; TG-2, Ca^2+ at 5 mM or more) | further results
O=C(O)CN(CCOCCOCCN(CC(=O)O)CC(=O)O)CC(=O)O [EGTA] | not inhibited | 98 | 94 |  | Influence of reagent on the activity of the reported TG (in words) [2]: greatly inhibited
[Ca+2].[Cl-].[Cl-] [CaCl2, calcium chloride] |  |  |  | not inhibited | TG activity maintained in the presence of Ca2+ ([1]; Ca2+ of not less than 5 mM): not less than 50%; Remaining Activity (relative value) [1, 5]: 65; Influence of Ca^2+ on the reported TG (in words) ([2]; Ca^2+ of 5 mM or more): inhibited
CCN1C(=O)C=CC1=O [NEM, N-ethylmaleimide] | inhibited |  |  | greatly inhibited | Remaining Activity (relative value) ([1]; agent concentration 1 (unit not given), TG not reacted with reagent = 100, 30 min on ice with reagent): 17
O[C@H](CS)[C@H](O)CS (racemic) [DTT, dithiothreitol] | not inhibited | 119 |  | not inhibited | Influence of reagent on the activity of the reported TG (in words) [2]: inhibited; Increase of TG activity in the presence of DTT ([3]; 1 mM of DTT): ≥ 1.5 times
O=S(=O)([O-])[O-].[Na+].[Na+] [Na2 SO4, sodium sulfate] | not inhibited | 87 | 85 |  | 
O=C(O)CN(CCN(CC(=O)O)CC(=O)O)CC(=O)O [EDTA, ethylenediamine-tetraacetic acid] | not inhibited | 107 |  |  | Influence of reagent on TG activity (in words) [3]: almost no influence
O=S(=O)(F)Cc1ccccc1 [PMSF, phenylmethanesulfonyl fluoride] |  |  |  |  | Remaining Activity (relative value) [1, 5]: 89; Remaining Activity (relative value) ([3]; agent concentration 5 mM): 95
N.N.O=S(=O)(O)O [(NH4)2 SO4, ammonium sulfate] | inhibited | 1 | 3 | greatly inhibited | 
OCCS [2-ME, 2-mercaptoethanol] | not inhibited | 111 | 122 |  | 
NCCSSCCN [cystamine] | inhibited |  |  | greatly inhibited | Remaining Activity (relative value) ([1]; agent concentration 2 (unit not given), control = 100): 0

— patent US5948662A, “Bacillus-derived transglutaminase” (Ajinomoto Co., Inc., priority 1995, dated 1999)
